# Source: publication PMC9685055, “Biological activity of new bioactive steroids deriving from biotransformation of cortisone” (Microbial Cell Factories, 2022)
# Columns and labels:
# [1] = tested on: Salmonella typhimurium TA100; test: Ames test (plate incorporation), strain TA100; type: cell-based
# Description: Mutagenicity assay was performed following the plate incorporation method with the histidine-requiring Salmonella typhimurium mutant TA98 and TA100 strains. All strains (100 µl per plate of fresh overnight cultures) were checked with and without the addition of 0.5 mL of a 5% S9 exogenous metabolic activator (S9 mix). The lyophilized post-mitochondrial supernatant S9 mix (Aroclor 1254-induced, Sprague–Dawley male rat liver in 0.154 M KCl solution, Molecular Toxicology, Inc., Boone, NC, USA), commonly used for the activation of pro-mutagens to mutagenic metabolites, was stored at− 80 °C before use. The concentration tested for all the samples were 1, 5, 10, 50, 100 µL/plate of a stock solution 100 mg/mL.
# A fully-grown culture of the appropriate tester strain (0.1 mL) was added to 2 mL Molten Top Agar (0.6% agar, 0.6% NaCl, 0.5 mM L-histidine/biotin solution) at 46 °C, together with 0.1 mL of each sample solution at different concentrations, and 0.5 mL S9 mix for assays with metabolic activation or 0.5 mL of phosphate buffer pH 7.4 to test without metabolic activation. The ingredients were thoroughly mixed and poured onto minimal glucose agar plates (1.5% agar in 2% Vogel–Bonner medium E with 5% glucose solution).
# DMSO was used as a negative control (100 µl/plate). Positive controls were prepared as follows: 2-aminoanthracene (2 µg/plate) and 2-nitrofluorene (2 µg/plate) for TA98 with and without metabolic activator (S9 mix) respectively; 2-aminoanthracene (2 µg/plate) and sodium azide (2 µg/plate) for TA100, with and without metabolic activator (S9 mix) respectively. The plates were incubated at 37 °C for 72 h and then the his^+ revertants were checked and counted using a Colony Counter 560 Suntex (Antibioticos, Italy). A sample was considered mutagenic when the observed number of colonies was at least twofold over the spontaneous level of revertants. All determinations were made in triplicate. Relative standard deviations were computed using the statistical software […] 6.0 (StatSoft Italia srl).
# [2] = tested on: primary cultures of rat cerebral cortex neurons; test: Glutamate-induced neurotoxicity, MTT viability; type: cell-based; settings: 10 μM, added 15 min before glutamate; viability 24 h later
# Description: Primary cultures of cortical neurons have been prepared from 1 day-old male rats [41]. After re-suspension in the plating medium, the cells were counted and then plated on poly-l-lysine (5 μg/mL)-coated dishes at a density of 2.5 × 10^6 cells/dish or on poly-l-lysine (5 μg/mL)-coated 24-well plates at a density of 0.5 × 10^6 cells/dish. The plating medium consisted of Eagle's Basal Medium supplemented with 10% inactivated fetal calf serum, 25 mM KCl, 2 mM glutamine and 100 μg/mL gentamycine. […] Cytosine arabinoside (10 μM) was added within 24 h of plating to prevent glial cell proliferation [41]. The cultures were maintained for 8 days in vitro before experiments.
# The cultures were then returned to the incubator in their growth medium. 24 h later, the glutamate-induced neurotoxicity was evaluated by measuring the neuronal viability. The different drugs tested were added 15 min before glutamate exposure and were present until the end of the experiment.
# The integrity of mitochondrial enzymes in viable neurons was determined with a colorimetric assay using 3-[4,5-dimethylthial-2-yl]-3, 5-diphenyl-tetrazolinium bromide (MTT) salt, as described by Mosdam [42]. […] The precipitated dye was dissolved in isopropanol with 1 M HCl and colorimetrically (absorbance at 570 nm) quantified. The results were expressed as values of absorbance at 570 nm.
# [3] = TA100, + S9, 1 µL/plate of a stock solution 100 mg/mL
# [4] = TA100, + S9, 5 µL/plate of a stock solution 100 mg/mL
# [5] = TA100, + S9, 10 µL/plate of a stock solution 100 mg/mL
# [6] = TA100, + S9, 50 µL/plate of a stock solution 100 mg/mL
# [7] = TA100, + S9, 100 µL/plate of a stock solution 100 mg/mL
# [8] = TA100, − S9, 1 µL/plate of a stock solution 100 mg/mL
# [9] = TA100, − S9, 5 µL/plate of a stock solution 100 mg/mL
# [10] = TA100, − S9, 10 µL/plate of a stock solution 100 mg/mL
# [11] = TA100, − S9, 50 µL/plate of a stock solution 100 mg/mL
# [12] = TA100, − S9, 100 µL/plate of a stock solution 100 mg/mL
Compound,genotoxic activity (Ames test) [1],"average number of revertant colonies [1, 3]","t/c (revertant colonies in treated plates/untreated plates) [1, 3]","average number of revertant colonies [1, 4]","t/c (revertant colonies in treated plates/untreated plates) [1, 4]","average number of revertant colonies [1, 5]","t/c (revertant colonies in treated plates/untreated plates) [1, 5]","average number of revertant colonies [1, 6]","t/c (revertant colonies in treated plates/untreated plates) [1, 6]","average number of revertant colonies [1, 7]","t/c (revertant colonies in treated plates/untreated plates) [1, 7]","average number of revertant colonies [1, 8]","t/c (revertant colonies in treated plates/untreated plates) [1, 8]","average number of revertant colonies [1, 9]","t/c (revertant colonies in treated plates/untreated plates) [1, 9]","average number of revertant colonies [1, 10]","t/c (revertant colonies in treated plates/untreated plates) [1, 10]","average number of revertant colonies [1, 11]","t/c (revertant colonies in treated plates/untreated plates) [1, 11]","average number of revertant colonies [1, 12]",also measured
"Cc1ccc(O)c2c1CCC1C3CC[C@](O)(C(=O)CO)[C@@]3(C)CC(=O)[C@@]21O (stereo partly drawn) [SCA, 1,9β,17,21‐tetrahydoxy‐4‐methyl‐19‐nor‐9β‐pregna‐1,3,5(10)‐trien‐11,20‐dione]",For none of the samples genotoxic activity emerged,179.3,1.0,181.7,1.0,185.3,1.0,205.7,1.1,194.3,1.1,163.0,1.0,164.3,1.0,158.0,1.0,157.0,0.9,166.7,"t/c (revertant colonies in treated plates/untreated plates) [1, 12]: 1.0; effect on glutamate-induced neurotoxicity (cell viability, MTT) [2]: partially reduced"
"Cc1ccc(O)c2c1CCC1C3CC[C@](O)([C@H](O)CO)[C@@]3(C)CC(=O)[C@@]21O (stereo partly drawn) [SCB, 1,9β,17,20β,21‐ pentahydoxy‐4‐methyl‐19‐nor‐9β‐pregna‐1,3,5(10)‐trien‐11‐one]",For none of the samples genotoxic activity emerged,190,1.0,194,1.0,193,1.0,189,1.0,195,1.0,157,0.9,169,1.0,164,1.0,169,1.0,180,"t/c (revertant colonies in treated plates/untreated plates) [1, 12]: 1.1; effect on glutamate-induced neurotoxicity (cell viability, MTT) [2]: partially reduced"
